Reference: patent US20070032529A1, “Pyrazole compounds and their use as antidiabetes agents” (Japan Tobacco Inc., priority 2005, published 2007)

Target: T1, recombinant human liver glycogen phosphorylase (Homo sapiens, UniProt P06737)
T1 construct: made in house; host or cells: Sf9 insect cells (crude homogenate, diluted, used as the enzyme solution)
T1 sequence (P06737 1-847): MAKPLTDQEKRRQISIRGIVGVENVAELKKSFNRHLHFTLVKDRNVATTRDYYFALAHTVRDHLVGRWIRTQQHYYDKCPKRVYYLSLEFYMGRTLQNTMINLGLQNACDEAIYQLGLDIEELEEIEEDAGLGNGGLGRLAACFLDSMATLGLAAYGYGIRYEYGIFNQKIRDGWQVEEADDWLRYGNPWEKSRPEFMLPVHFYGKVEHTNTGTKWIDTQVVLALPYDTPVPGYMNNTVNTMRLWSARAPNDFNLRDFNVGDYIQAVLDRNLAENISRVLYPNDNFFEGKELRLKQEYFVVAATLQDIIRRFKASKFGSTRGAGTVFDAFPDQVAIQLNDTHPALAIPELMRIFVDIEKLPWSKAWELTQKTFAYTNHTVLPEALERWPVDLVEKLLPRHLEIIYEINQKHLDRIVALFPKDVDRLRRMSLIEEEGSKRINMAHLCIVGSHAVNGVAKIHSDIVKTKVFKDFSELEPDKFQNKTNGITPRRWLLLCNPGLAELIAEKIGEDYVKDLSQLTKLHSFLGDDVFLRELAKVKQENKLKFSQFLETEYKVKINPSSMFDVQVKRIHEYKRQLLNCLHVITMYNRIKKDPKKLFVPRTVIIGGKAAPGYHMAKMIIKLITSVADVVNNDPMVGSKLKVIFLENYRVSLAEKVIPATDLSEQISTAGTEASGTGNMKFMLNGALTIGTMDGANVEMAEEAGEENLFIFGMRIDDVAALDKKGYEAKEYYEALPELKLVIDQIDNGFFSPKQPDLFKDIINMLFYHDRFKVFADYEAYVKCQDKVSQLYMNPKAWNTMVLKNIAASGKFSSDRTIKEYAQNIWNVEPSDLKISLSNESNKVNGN
Experiment: Measuring liver glycogen phosphorylase activity (forward reaction system, NADPH absorbance at 340 nm)
Assay type: biochemical
Settings: compound concentration 300 nmol (in parentheses); read-out: inhibition rate (%) at a certain concentration
In short: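 Sf9 homogenate expressing the enzyme, in pH 6.8 BES/EDTA, with glycogen and phosphate substrate plus glucose, coupled via phosphoglucomutase/G6PDH to NADPH formation. A340 change over 75 min at room temperature, blank-corrected; IC50 linearly interpolated between the two concentrations bracketing 50% inhibition versus 1% DMSO control.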

Row | Structure (SMILES) | inhibition at 0.3 µM
1 | COc1ccccc1NC(=O)c1cc(NC(=O)c2cc(F)c(F)cc2Cl)[nH]n1 [Example 3-27] | 41.5%
2 | CN(C)CCNC(=O)c1cc(NC(=O)c2cc(F)c(F)cc2Cl)[nH]n1 [Example 3-42] | 1.1%
3 | CCN(CCN(C)C)C(=O)c1cc(NC(=O)c2cc(F)c(F)cc2Cl)[nH]n1 [Example 3-43] | 13.4%

Same assay, conditions: compound concentration 400 nmol (in parentheses); read-out: inhibition rate (%) at a certain concentration

Row | Structure (SMILES) | inhibition at 0.4 µM
4 | O=C(Nc1cc(C(=O)N2CCc3ccccc3C2)n[nH]1)c1cc(F)c(F)cc1Cl [Example 3-12] | 50%

Same assay, conditions: compound concentration 480 nmol (in parentheses); read-out: inhibition rate (%) at a certain concentration

Row | Structure (SMILES) | inhibition at 0.48 µM
5 | O=C(NCCc1ccccc1)c1cc(NC(=O)c2cc(F)c(F)cc2Cl)[nH]n1 [Example 3-9] | 50%

Same assay, conditions: compound concentration 640 nmol (in parentheses); read-out: inhibition rate (%) at a certain concentration

Row | Structure (SMILES) | inhibition at 0.64 µM
6 | O=C(N[C@@H](CO)c1ccccc1)c1cc(NC(=O)c2cc(F)c(F)cc2Cl)[nH]n1 [Example 3-22] | 50%

Same assay, conditions: compound concentration 1000 nmol (in parentheses); read-out: inhibition rate (%) at a certain concentration

Row | Structure (SMILES) | inhibition at 1 µM
7 | CCOC(=O)C1CCN(C(=O)c2cc(NC(=O)c3cc(F)c(F)cc3Cl)[nH]n2)CC1 [Example 3-6] | 42.5%
8 | O=C(Nc1cc(C(=O)N2CCC(C(=O)O)CC2)n[nH]1)c1cc(F)c(F)cc1Cl [Example 3-8] | 11.7%
9 | CN(CCc1ccccc1)C(=O)c1cc(NC(=O)c2cc(F)c(F)cc2Cl)[nH]n1 [Example 3-10] | 23.2%
10 | COC(=O)[C@@H](NC(=O)c1cc(NC(=O)c2cc(F)c(F)cc2Cl)[nH]n1)c1ccccc1 [Example 3-13] | 25.5%
11 | COC(=O)[C@H](NC(=O)c1cc(NC(=O)c2cc(F)c(F)cc2Cl)[nH]n1)c1ccccc1 [Example 3-14] | 41.7%
12 | O=C(NC(c1ccccc1)c1ccccc1)c1cc(NC(=O)c2cc(F)c(F)cc2Cl)[nH]n1 [Example 3-19] | 9.2%
13 | O=C(N[C@H](CO)c1ccccc1)c1cc(NC(=O)c2cc(F)c(F)cc2Cl)[nH]n1 [Example 3-23] | 26.1%
14 | COC(=O)c1ccc(N(C)C(=O)c2cc(NC(=O)c3cc(F)c(F)cc3Cl)[nH]n2)cc1 [Example 4-1, methyl 5-(2-chloro-4,5-difluorobenzoylamino)-1H-pyrazole-3-carbocylic acid (4-methoxycarbonyl-phenyl)-methyl-amide] | 13.8%

Same assay, conditions: enzyme inhibitory activity with respect to liver glycogen phosphorylase; class symbols

Row | Structure (SMILES) | IC50
15 | O=C(Nc1cc(C(=O)N2CCCc3ccccc32)n[nH]1)c1cc(F)c(F)cc1Cl [Example 3-15] | 0.1 to 0.3 µM
16 | CCCN(C(=O)c1cc(NC(=O)c2cc(F)c(F)cc2Cl)[nH]n1)c1ccccc1 [Example 3-16] | < 0.1 µM
17 | CCCCN(C(=O)c1cc(NC(=O)c2cc(F)c(F)cc2Cl)[nH]n1)c1ccccc1 [Example 3-17] | < 0.1 µM
18 | CCCCCN(C(=O)c1cc(NC(=O)c2cc(F)c(F)cc2Cl)[nH]n1)c1ccccc1 [Example 3-18] | 0.1 to 0.3 µM
19 | COc1ccccc1N(C)C(=O)c1cc(NC(=O)c2cc(F)c(F)cc2Cl)[nH]n1 [Example 3-28] | 0.1 to 0.3 µM
20 | Nc1cccc(CNC(=O)c2cc(NC(=O)c3cc(F)c(F)cc3Cl)[nH]n2)c1 [Example 3-30] | < 0.1 µM
21 | CN(C)c1cccc(CNC(=O)c2cc(NC(=O)c3cc(F)c(F)cc3Cl)[nH]n2)c1 [Example 3-34] | < 0.1 µM
22 | O=C(NCc1ccccc1Cl)c1cc(NC(=O)c2cc(F)c(F)cc2Cl)[nH]n1 [Example 3-36] | < 0.1 µM
23 | O=C(NCc1cccc(Cl)c1)c1cc(NC(=O)c2cc(F)c(F)cc2Cl)[nH]n1 [Example 3-37] | < 0.1 µM
24 | CN(C)CCN(C(=O)c1cc(NC(=O)c2cc(F)c(F)cc2Cl)[nH]n1)C1CCCCC1 [Example 3-44] | 0.1 to 0.3 µM
25 | COC(=O)COc1ccccc1CNC(=O)c1cc(NC(=O)c2cc(F)c(F)cc2Cl)[nH]n1 [Example 3-47] | < 0.1 µM
26 | O=C(O)COc1ccccc1CNC(=O)c1cc(NC(=O)c2cc(F)c(F)cc2Cl)[nH]n1 [Example 3-48] | < 0.1 µM
27 | COc1ccc(CNC(=O)c2cc(NC(=O)c3ccc(Cl)cc3Cl)[nH]n2)cn1 [Example 3-50] | < 0.1 µM
28 | COc1cncc(OC)c1CNC(=O)c1cc(NC(=O)c2cc(F)c(F)cc2Cl)[nH]n1 [Example 3-51] | < 0.1 µM
29 | Cc1nc(C)c(CNC(=O)c2cc(NC(=O)c3cc(F)c(Cl)cc3Cl)[nH]n2)o1 [Example 3-53] | < 0.1 µM
